# Legend:
# [1] = target: T1, membrane-bound aminopeptidase activity in the CA3 (Rattus norvegicus, UniProt P15684); assay type: biochemical
# T1 sequence (P15684 2-965): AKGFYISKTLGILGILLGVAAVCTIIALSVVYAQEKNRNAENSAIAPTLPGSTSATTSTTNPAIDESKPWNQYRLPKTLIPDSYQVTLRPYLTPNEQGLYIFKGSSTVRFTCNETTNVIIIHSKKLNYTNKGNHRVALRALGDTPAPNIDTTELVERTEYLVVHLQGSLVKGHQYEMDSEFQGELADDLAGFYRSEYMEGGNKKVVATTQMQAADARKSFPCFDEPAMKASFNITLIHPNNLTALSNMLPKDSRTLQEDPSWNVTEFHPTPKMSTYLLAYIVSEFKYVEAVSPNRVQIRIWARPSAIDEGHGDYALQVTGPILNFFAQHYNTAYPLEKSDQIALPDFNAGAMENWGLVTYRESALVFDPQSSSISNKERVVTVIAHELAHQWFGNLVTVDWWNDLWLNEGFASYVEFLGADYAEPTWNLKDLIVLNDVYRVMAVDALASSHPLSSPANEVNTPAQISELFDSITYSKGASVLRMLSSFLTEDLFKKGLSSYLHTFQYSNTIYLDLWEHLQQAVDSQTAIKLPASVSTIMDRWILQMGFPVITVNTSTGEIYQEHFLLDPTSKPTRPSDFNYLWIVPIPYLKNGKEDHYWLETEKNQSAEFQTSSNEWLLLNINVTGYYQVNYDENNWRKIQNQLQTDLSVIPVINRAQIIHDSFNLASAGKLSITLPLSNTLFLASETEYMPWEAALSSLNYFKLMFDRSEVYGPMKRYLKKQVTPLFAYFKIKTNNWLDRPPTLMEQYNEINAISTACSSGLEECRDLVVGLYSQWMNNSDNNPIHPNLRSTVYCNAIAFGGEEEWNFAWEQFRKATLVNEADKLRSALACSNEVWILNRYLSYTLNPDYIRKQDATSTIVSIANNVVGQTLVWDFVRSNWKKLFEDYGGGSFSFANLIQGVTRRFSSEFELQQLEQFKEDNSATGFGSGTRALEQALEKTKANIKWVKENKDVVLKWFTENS
# [2] = target: puromycin-sensitive aminopeptidase (PSA, EC 3.4.11.14); conditions: cited from earlier work
# [3] = target: T2, membrane-bound aminopeptidase activity in the CA1 (Rattus norvegicus, UniProt P15684); assay type: biochemical
# T2 sequence (P15684 2-965): T1 sequence (P15684 2-965)
# [4] = test system: ectopeptidases in whole OHSCs; conditions: EO sampling; cited from earlier work
# [5] = target: aminopeptidase N (APN, EC 3.4.11.2); conditions: cited from earlier work
SMILES,Ki [1] [µM],Ki [2] [µM],Ki [3] [µM],effect on hydrolysis of exogenously applied YGGFL [4],Ki [5] [µM]
CC(C)C[C@H](NC(=O)[C@@H](O)[C@H](N)Cc1ccccc1)C(=O)O [bestatin],11 ± 7,0.5,12 ± 9,–,–
COc1ccc(C[C@H](N)C(=O)N[C@H]2[C@@H](O)[C@H](n3cnc4c(N(C)C)ncnc43)O[C@@H]2CO)cc1 [puromycin],–,1,–,little to no effect,100
